Assay results: patent US10023562B2, “Heteroaryl substituted pyridyl compounds useful as kinase modulators” (BRISTOL-MYERS SQUIBB COMPANY, priority 2012, dated 2018)

Legend:
IRAK4 = IRAK4 (Homo sapiens (Human), UniProt Q9NWZ3); test: IRAK4 Inhibition Assay; type: biochemical; details: ATP 500 μM; IRAK4 0.6 nM; 60 min at room temperature
Experimental: IRAK4 Inhibition Assay The assays were performed in U-bottom 384-well plates. […] The reaction was initiated by the combination of IRAK4 with substrates and test compounds. The reaction mixture was incubated at room temperature for 60 min. and terminated by adding 45 μL of 35 mM EDTA to each sample. The reaction mixture was analyzed on the Caliper LABCHIP® 3000 (Caliper, Hopkinton, Mass.) by electrophoretic separation of the fluorescent substrate and phosphorylated product.

[1] = test system: TLR2 induced IL-6 in peripheral blood mononuclear cells (PBMCs); test: PBMC TLR2 Induced IL-6 Assay; type: cell-based; details: Homo sapiens, PBMC, 5 h, 10 μg/ml lipoteichoic acid for 5 hours, IL-6 by ELISA, values marked * are EC50, read-out: Cell EC50 (values marked *)
Experimental: PBMC TLR2 Induced IL-6 Assay Peripheral blood mononuclear cells (PBMCs) were isolated from human blood containing the anti-coagulant EDTA (2.5 mM) by centrifugation over a FICOLL® gradient. […] At the end of the culture, plates were centrifuged at 1800 rpm for 10 minutes to pellet the cells. Supernatants were harvested and analyzed for IL-6 levels by ELISA (BD Biosciences, San Jose, Calif.).

Sequence of IRAK4 (Q9NWZ3 whole entry, species assumed): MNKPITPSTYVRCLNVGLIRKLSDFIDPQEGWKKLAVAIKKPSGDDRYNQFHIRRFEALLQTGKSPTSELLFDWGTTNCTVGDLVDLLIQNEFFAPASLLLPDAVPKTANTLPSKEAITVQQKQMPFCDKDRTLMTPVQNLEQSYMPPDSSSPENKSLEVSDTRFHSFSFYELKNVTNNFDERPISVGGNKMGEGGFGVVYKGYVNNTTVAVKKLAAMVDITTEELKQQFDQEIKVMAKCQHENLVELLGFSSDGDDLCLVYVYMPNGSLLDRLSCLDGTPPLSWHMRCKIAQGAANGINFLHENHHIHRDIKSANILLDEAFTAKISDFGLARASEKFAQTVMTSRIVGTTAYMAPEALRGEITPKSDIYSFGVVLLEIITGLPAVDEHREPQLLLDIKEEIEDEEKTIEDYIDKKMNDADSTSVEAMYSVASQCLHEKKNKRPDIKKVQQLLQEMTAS

IC50 (IRAK4) | Compound | EC50 [1]
1.5 nM | CC(C)Nc1cc(Nc2ncc(Cl)cc2Cl)ncc1C(=O)NC[C@@H](F)C(C)(C)O [Example 84] | 138 nM
 | CC(C)Nc1cc(Nc2ncc(C#N)cc2F)ncc1C(=O)NC1CCC(O)(c2nccs2)CC1 (stereo not shown) [Example 167] | 638 nM
 | CC(C)(O)[C@H](F)CNC(=O)c1cnc(Nc2ncc(C#N)cc2Cl)cc1Nc1ccc(-n2cccn2)cc1 [Example 168] | 122 nM
